Measurements taken from patent US8916551B2, “Heterocyclic compound and use thereof” (Takeda Pharmaceutical Company Limited, priority 2010, dated 2014).

biological target: T1, AMPA receptor (human GluR1 flip/stargazin expressed in CHO-K1 cells) (Homo sapiens, UniProt P42261); assay: AMPA receptor function enhancing activity using calcium influx as index; format: cell-based; settings: test compound 30 μM with 3 mM glutamic acid, change in fluorescence level in 3 min, 100% = 3 mM glutamic acid + 300 μM cyclothiazide, 0% = 3 mM glutamic acid only
T1 construct: expressed in transfected cells; host or cells: CHO-K1
Description: Human GluR1 flip cDNA was amplified by PCR using forward primer […] (SEQ ID NO: 1) and reverse primer […] (SEQ ID NO: 2) artificially synthesized using human brain-derived cDNA (BD Bio science) as a template. The amplified product was digested with restriction enzymes EcoRI, NotI (TAKARA SHUZO CO. LTD.), and incorporated into the same site of pcDNA3.1(+) (Invitrogen) to construct pcDNA3.1(+)/human GluR1 flip gene. Human stargazin cDNA was amplified by PCR using forward primer […] (SEQ ID NO: 3) and reverse primer […] (SEQ ID NO: 4) artificially synthesized using human hippocampus cDNA as a template. The amplified product was digested with restriction enzymes XhoI, BamHI (TAKARA SHUZO CO. LTD.), and incorporated into the same site of pcDNA3.1(−) (Invitrogen) to construct pcDNA3.1 Zeo(−)/human stargazin gene.
CHO-K1 cells passaged in a culture medium (Ham's F12 medium (Invitrogen) added with 10% inactivated fetal bovine serum (Morgate) and penicillin, streptomycin (Invitrogen)) were detached with 0.05% trypsin, 0.53 mM EDTA (Invitrogen) diluted with D-PBS(−). The detached cells were suspended in a culture medium, and recovered by a centrifugation operation at 1,000 rpm. The recovered cells were suspended again in D-PBS(−), and added to a 0.4 cm electroporation cuvette (BioRad). pcDNA3.1(+)/human GluR1 flip gene (5 μg) and pcDNA3.1 Zeo(−)/human stargazin gene (15 μg) were added, and the mixture was introduced into CHO-K1 cells using Gene Pulser II (BioRad) under the conditions of 950 μFd, […]. The introduced cells were cultured overnight in a culture medium and, the next day, plated in a 96 well plate at 250 cells/well using a selection medium (culture medium added with Zeocin (Invitrogen) to 250 μg/mL). Clones showing drug resistance were selected, and GluR1 flip/stargazin expressing clones were selected by an assay method using calcium influx as an index as shown below.
CHO-K1/GluR1 flip/stargazin expressing cells were plated on a 96 well black transparent bottom plate (Costar) at 2×10^4 cells/well, and cultured in a 37° C., CO2 incubator (SANYO Electric Co., Ltd.) for 2 days. The medium in the cell plate was removed, and assay buffer A (D-MEM (Invitrogen), 0.1% BSA (Serogical Protein), 20 mM HEPES (Invitrogen)) was added at 50 μL/well. A calcium indicator (Calcium 4 Assay Kit, Invitrogen) added with 2.5 mM probenecid (Invitrogen) was added at 50 μL/well and the well was left standing in 37° C., CO2 incubator for 1 hr. The cell plate was set in CellLux (PerkinElmer), a mixture (50 μL) of 9 mM glutamic acid diluted with assay buffer B (HBSS (Invitrogen), 0.1% BSA, 20 mM HEPES) (final concentration 3 mM) and a test compound (test compound concentration 30 μM) was added, and the amount of change in fluorescence level in 3 min was measured. In the definition here, the amount of change in fluorescence level of well added with glutamic acid at final concentration 3 mM and 300 μM cyclothiazide (TOCRIS) is 100%, the amount of change in fluorescence level of well added only with glutamic acid at final concentration 3 mM is 0%, and the compound activity was calculated according to the following formula. activity(%)=(X−C)/(T−C)×100 T: amount of change in fluorescence level of well added with glutamic acid at final concentration 3 mM and 300 μM cyclothiazide C: amount of change in fluorescence level of well added only with glutamic acid at final concentration 3 mM X: amount of change in fluorescence level of well added with test compound

T1 sequence (P42261 19-906 isoform P42261-2 limits assumed): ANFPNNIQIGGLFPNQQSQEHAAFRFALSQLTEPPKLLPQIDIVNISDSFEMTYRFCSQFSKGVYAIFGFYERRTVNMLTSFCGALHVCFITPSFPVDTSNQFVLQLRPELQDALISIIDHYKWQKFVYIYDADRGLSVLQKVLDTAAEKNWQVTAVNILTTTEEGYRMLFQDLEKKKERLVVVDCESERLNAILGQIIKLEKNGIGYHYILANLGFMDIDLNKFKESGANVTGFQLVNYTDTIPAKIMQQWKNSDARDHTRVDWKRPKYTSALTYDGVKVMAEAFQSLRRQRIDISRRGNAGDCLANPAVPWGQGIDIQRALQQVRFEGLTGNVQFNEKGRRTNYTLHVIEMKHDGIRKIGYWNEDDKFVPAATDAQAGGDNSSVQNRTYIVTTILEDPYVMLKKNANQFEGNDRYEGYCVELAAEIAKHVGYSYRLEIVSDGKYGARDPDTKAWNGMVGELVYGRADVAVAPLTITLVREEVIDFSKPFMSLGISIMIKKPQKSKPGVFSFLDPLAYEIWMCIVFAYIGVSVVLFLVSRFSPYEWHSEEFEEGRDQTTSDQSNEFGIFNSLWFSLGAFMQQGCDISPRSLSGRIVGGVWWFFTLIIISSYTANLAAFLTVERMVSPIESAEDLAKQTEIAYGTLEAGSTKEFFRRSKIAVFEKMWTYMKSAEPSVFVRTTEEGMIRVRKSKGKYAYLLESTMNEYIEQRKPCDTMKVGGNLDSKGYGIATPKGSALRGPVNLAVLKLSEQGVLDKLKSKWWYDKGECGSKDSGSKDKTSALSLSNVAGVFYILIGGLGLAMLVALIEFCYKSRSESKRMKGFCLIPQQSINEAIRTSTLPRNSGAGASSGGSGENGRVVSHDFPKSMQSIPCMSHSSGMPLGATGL
T1 sequence (Q9Y698 whole entry partner): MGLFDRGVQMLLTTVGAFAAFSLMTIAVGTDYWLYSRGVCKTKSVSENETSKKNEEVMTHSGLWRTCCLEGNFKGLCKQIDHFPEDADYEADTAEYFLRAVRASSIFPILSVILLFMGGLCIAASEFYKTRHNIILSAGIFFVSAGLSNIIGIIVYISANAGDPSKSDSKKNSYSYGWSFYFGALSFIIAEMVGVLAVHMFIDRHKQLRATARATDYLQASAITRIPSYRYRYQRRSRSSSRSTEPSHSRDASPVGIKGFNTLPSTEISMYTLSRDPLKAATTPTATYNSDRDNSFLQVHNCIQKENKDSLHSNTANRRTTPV

Row | Structure (SMILES) | activity (%)
1 | O=S1(=O)CCN2CCCC(c3ccc(Oc4ccc(Br)c(C(F)(F)F)c4)cc3)C2=N1 (centres unmarked) [Example 142, 9-{4-[4-bromo-3-(trifluoromethyl)phenoxy]phenyl}-3,4,6,7,8,9-hexahydropyrido[2,1-c][1,2,4]thiadiazine 2,2-dioxide] | 70%
2 | Cc1cc(F)ccc1Oc1ccc(C2CCCN3CCS(=O)(=O)N=C23)cc1 (centres unmarked) [Example 144, 9-[4-(4-fluoro-2-methylphenoxy)phenyl]-3,4,6,7,8,9-hexahydropyrido[2,1-c][1,2,4]thiadiazine 2,2-dioxide] | 76%
3 | Cc1cc(F)ccc1Oc1ccc(C2CCCN3CCS(=O)(=O)N=C23)cc1 (centres unmarked) [Example 145, 9-[4-(4-fluoro-2-methylphenoxy)phenyl]-3,4,6,7,8,9-hexahydropyrido[2,1-c][1,2,4]thiadiazine 2,2-dioxide] | 84%
4 | O=S1(=O)CCN2CCC[C@@H](c3ccc(Oc4ccc(Cl)cc4)cc3)C2=N1 [Example 149, (9S)-9-[4-(4-chlorophenoxy)phenyl]-3,4,6,7,8,9-hexahydropyrido[2,1-c][1,2,4]thiadiazine 2,2-dioxide] | 77%
5 | O=S1(=O)CCN2CCCC(c3ccc(Oc4ccc(Cl)c(Cl)c4)cc3)C2=N1 (centres unmarked) [Example 152, 9-[4-(3,4-dichlorophenoxy)phenyl]-3,4,6,7,8,9-hexahydropyrido[2,1-c][1,2,4]thiadiazine 2,2-dioxide] | 80%
6 | COc1cc(Oc2ccc(C3=CC=CN4CCS(=O)(=O)N=C34)cc2)ccc1Cl [Example 154, 9-[4-(4-chloro-3-methoxyphenoxy)phenyl]-3,4-dihydropyrido[2,1-c][1,2,4]thiadiazine 2,2-dioxide] | 75%
7 | COc1cc(Oc2ccc(C3CCCN4CCS(=O)(=O)N=C34)cc2)ccc1Cl (centres unmarked) [Example 155, 9-[4-(4-chloro-3-methoxyphenoxy)phenyl]-3,4,6,7,8,9-hexahydropyrido[2,1-c][1,2,4]thiadiazine 2,2-dioxide] | 63%
8 | CC(F)(F)c1cccc(Oc2ccc(C3=CC=CN4CCS(=O)(=O)N=C34)cc2)c1 [Example 156, 9-{4-[3-(1,1-difluoroethyl)phenoxy]phenyl}-3,4-dihydropyrido[2,1-c][1,2,4]thiadiazine 2,2-dioxide] | 90%
9 | CC(F)(F)c1cccc(Oc2ccc(C3CCCN4CCS(=O)(=O)N=C34)cc2)c1 (centres unmarked) [Example 158, 9-{4-[3-(1,1-difluoroethyl)phenoxy]phenyl}-3,4,6,7,8,9-hexahydropyrido[2,1-c][1,2,4]thiadiazine 2,2-dioxide] | 76%
10 | CC(F)(F)c1cccc(Oc2ccc(C3CCCN4CCS(=O)(=O)N=C34)cc2)c1 (centres unmarked) [Example 159, 9-{4-[3-(1,1-difluoroethyl)phenoxy]phenyl}-3,4,6,7,8,9-hexahydropyrido[2,1-c][1,2,4]thiadiazine 2,2-dioxide] | 90%
11 | O=S1(=O)CCN2CCC[C@@H](c3ccc(Oc4cc(C(F)(F)F)ccc4Cl)cc3)C2=N1 [Example 160, (9S)-9-{4-[2-chloro-5-(trifluoromethyl)phenoxy]phenyl}-3,4,6,7,8,9-hexahydropyrido[2,1-c][1,2,4]thiadiazine 2,2-dioxide] | 78%
12 | CCc1ccc(Oc2ccc(C3CCCN4CCS(=O)(=O)N=C34)cc2)cc1 (centres unmarked) [Example 161, 9-[4-(4-ethylphenoxy)phenyl]-3,4,6,7,8,9-hexahydropyrido[2,1-c][1,2,4]thiadiazine 2,2-dioxide] | 57%

The remaining lines, values ahead:

Row | activity (%) | Structure (SMILES)
13 | 56% | O=S1(=O)CCN2C=CC=C(c3ccc(C(F)(F)c4ccccc4)cc3)C2=N1 [Example 162, 9-{4-[difluoro(phenyl)methyl]phenyl}-3,4-dihydropyrido[2,1-c][1,2,4]thiadiazine 2,2-dioxide]
14 | 74% | O=S1(=O)CCN2CCCC(c3ccc(C(F)(F)c4ccccc4)cc3)C2=N1 (centres unmarked) [Example 163, 9-{4-[difluoro(phenyl)methyl]phenyl}-3,4,6,7,8,9-hexahydropyrido[2,1-c][1,2,4]thiadiazine 2,2-dioxide]
15 | 69% | COc1cc(Oc2ccc(C3CC(C)CN4CCS(=O)(=O)N=C34)cc2)ccc1F (centres unmarked) [Example 164, 9-[4-(4-fluoro-3-methoxyphenoxy)phenyl]-7-methyl-3,4,6,7,8,9-hexahydropyrido[2,1-c][1,2,4]thiadiazine 2,2-dioxide]
16 | 87% | CC1CC(c2ccc(Oc3cccc(C(C)(F)F)c3)cc2)C2=NS(=O)(=O)CCN2C1 (centres unmarked) [Example 171, 9-{4-[3-(1,1-difluoroethyl)phenoxy]phenyl}-7-methyl-3,4,6,7,8,9-hexahydropyrido[2,1-c][1,2,4]thiadiazine 2,2-dioxide]
17 | 79% | CC(F)(F)c1ccc(C2CCCN3CCS(=O)(=O)N=C23)cc1 (centres unmarked) [Example 174, 9-[4-(1,1-difluoroethyl)phenyl]-3,4,6,7,8,9-hexahydropyrido[2,1-c][1,2,4]thiadiazine 2,2-dioxide]
18 | 69% | O=S1(=O)CCN2CCCC(c3ccc(C(F)(F)F)cc3)C2=N1 (centres unmarked) [Example 177, 9-[4-(trifluoromethyl)phenyl]-3,4,6,7,8,9-hexahydropyrido[2,1-c][1,2,4]thiadiazine 2,2-dioxide]
19 | 69% | O=S1(=O)CCN2CCCC(c3ccc(OC(F)(F)F)cc3)C2=N1 (centres unmarked) [Example 179, 9-[4-(trifluoromethoxy)phenyl]-3,4,6,7,8,9-hexahydropyrido[2,1-c][1,2,4]thiadiazine 2,2-dioxide]
20 | 70% | CC1=CN2CCS(=O)(=O)N=C2C(c2ccc(OC3CCCCC3)cc2)=N1 [Example 180, 9-[4-(cyclohexyloxy)phenyl]-7-methyl-3,4-dihydropyrazino[2,1-c][1,2,4]thiadiazine 2,2-dioxide]
21 | 36% | O=S1(=O)CCN2C=CC=C(C3CCC(c4ccccc4)CC3)C2=N1 (centres unmarked) [Example 185, 9-(4-phenylcyclohexyl)-3,4-dihydropyrido[2,1-c][1,2,4]thiadiazine 2,2-dioxide]
22 | 72% | O=S1(=O)CCN2C=CC=C(c3ccc(Oc4cccc(C(F)(F)F)c4)cc3)C2=N1 [Example 187, 9-{4-[3-(trifluoromethyl)phenoxy]phenyl}-3,4-dihydropyrido[2,1-c][1,2,4]thiadiazine 2,2-dioxide]
23 | 85% | O=S1(=O)CCN2CCC[C@@H](c3ccc(Oc4cccc(Cl)c4)cc3)C2=N1 [Example 203, (9S)-9-[4-(3-chlorophenoxy)phenyl]-3,4,6,7,8,9-hexahydropyrido[2,1-c][1,2,4]thiadiazine 2,2-dioxide]

same assay, conditions: test compound 30 μM with glutamic acid final 3 mM, change in fluorescence in 3 min, 100% = 3 mM glutamic acid + 300 μM cyclothiazide, 0% = 3 mM glutamic acid only

Row | Structure (SMILES) | activity (%)
24 | Cc1ccc(C(F)(F)c2ccc(C3=CC=CN4CCS(=O)(=O)N=C34)cc2)cc1 [Example 136, 9-{4-[difluoro(4-methylphenyl)methyl]phenyl}-3,4-dihydropyrido[2,1-c][1,2,4]thiadiazine 2,2-dioxide] | 77%
25 | Cc1ccc(C(F)(F)c2ccc(C3CCCN4CCS(=O)(=O)N=C34)cc2)cc1 (centres unmarked) [Example 138, 9-{4-[difluoro(4-methylphenyl)methyl]phenyl}-3,4,6,7,8,9-hexahydropyrido[2,1-c][1,2,4]thiadiazine 2,2-dioxide] | 71%
26 | O=S1(=O)CCN2CCCC(c3ccc(Oc4ccc5c(c4)OCC5)cc3)C2=N1 (centres unmarked) [Example 141, 9-[4-(2,3-dihydro-1-benzofuran-6-yloxy)phenyl]-3,4,6,7,8,9-hexahydropyrido[2,1-c][1,2,4]thiadiazine 2,2-dioxide] | 80%
